Laboratory results taken from patent US20250084091A1, “INHIBITORS OF SARS-COV-2” (The Texas A&M University System, priority 2021, published 2025).

Target: SARS-CoV-2 main protease (Mpro) (Severe acute respiratory syndrome coronavirus 2, UniProt P0DTD1)
Assay: biochemical
Conditions: for inhibition at 20 µM: read-out: Enzyme inhibition @ 20 uM; for IC50: Table 2, read-out: Enzyme IC50

SMILES | inhibition at 20 µM | IC50
O=C(C1CNCCO1)N1CCN(C(c2ccccc2)c2ccccc2)CC1 (stereo not drawn) [AA-582, (4-benzhydrylpiperazin-1-yl)(morpholin-2-yl)methanone] | 60% | –
O=C(c1cncc2cc[nH]c12)N1CCC(N(c2ccccc2)c2ccccc2)CC1 [AA-667, [4-(N-phenylanilino)-1-piperidyl]-(1H-pyrrolo[3,2-c]pyridin-7-yl)methanone] | – | 3320 nM
O=C(c1cnccn1)N1CCN(C(c2ccccc2)c2cccnc2)CC1 (stereo not drawn) [MKP-1188, 2-{4-[phenyl(pyridin-3-yl)methyl]piperazine-1-carbonyl}pyrazine] | 50% | –
O=C(c1cncnc1)N1CCN(C(c2ccccc2)c2cccnc2)CC1 (stereo not drawn) [MKP-1189, 5-{4-[phenyl(pyridin-3-yl)methyl]piperazine-1-carbonyl}pyrimidine] | 60% | –
O=C(c1cncc(Br)c1)N1CCN(C(c2ccccc2)c2cccnc2)CC1 (stereo not drawn) [MKP-1200, 1-(5-bromopyridine-3-carbonyl)-4-[phenyl(pyridin-3-yl)methyl]piperazine] | – | 320 nM
COc1cccc(C(c2ccccc2)N2CCN(C(=O)c3cccnc3)CC2)c1 (stereo not drawn) [MKP-1203, 1-[(3-methoxyphenyl)(phenyl)methyl]-4-(pyridine-3-carbonyl)piperazine] | – | 2800 nM
COc1cccc(C(c2ccccc2)N2CCN(C(=O)c3cncc(Cl)c3)CC2)c1 (stereo not drawn) [MKP-1205, 1-(5-chloropyridine-3-carbonyl)-4-[(3-methoxyphenyl)(phenyl)methyl] piperazine] | – | 550 nM
Cc1cncc(C(=O)N2CCC(=C(c3cccc(F)c3)c3cccc(F)c3)CC2)c1 [MKP-1349, (4-(bis(3-fluorophenyl)methylene)piperidin-1-yl)(5-methylpyridin-3-yl)methanone] | – | 42 nM
Cc1cncc(C(=O)N2CCC(=C(c3ccc(F)cc3)c3cccc(F)c3)CC2)c1 [MKP-1359, (4-((3-fluorophenyl)(4-fluorophenyl)methylene)piperidin-1-yl)(5-methylpyridin-3-yl)methanone] | – | 44 nM
Cc1cncc(C(=O)N2CCC(=C(c3ccccc3)c3cccc(F)c3)CC2)c1 [MKP-1360, (4-((3-fluorophenyl)(phenyl)methylene)piperidin-1-yl)(5-methylpyridin-3-yl)methanone] | – | 35 nM
Cc1cncc(C(=O)N2CCC(=C(c3cccc(O)c3)c3cccc(O)c3)CC2)c1 [MKP-1381, (4-(bis(3-hydroxyphenyl)methylene)piperidin-1-yl)(5-methylpyridin-3-yl)methanone] | – | 94 nM
Cc1cncc(C(=O)N2CCC(=C(c3cccnc3)c3cccc(O)c3)CC2)c1 [MKP-1392, (4-((3-hydroxyphenyl)(pyridin-3-yl)methylene)piperidin-1-yl)(5-methylpyridin-3-yl)methanone] | – | 93 nM
Cc1cncc(C(=O)N2CCC(=C(c3ccccc3)c3ccncc3)CC2)c1 [MKP-1398, (5-methylpyridin-3-yl)(4-(phenyl(pyridin-4-yl)methylene)piperidin-1-yl)methanone] | – | 580 nM
Cc1cncc(C(=O)N2CCC(=C(c3ccccc3)c3ccccn3)CC2)c1 [MKP-1400, (5-methylpyridin-3-yl)(4-(phenyl(pyridin-2-yl)methylene)piperidin-1-yl)methanone] | – | 74 nM
Cc1cncc(C(=O)N2CCC(N(c3cccc(F)c3)c3cccc(F)c3)CC2)c1 [MKP-1404, (4-(bis(3-fluorophenyl)amino)piperidin-1-yl)(5-methylpyridin-3-yl)methanone] | – | 2660 nM
O=C(c1cncc2cc[nH]c12)N1CCC(=C(c2cccc(O)c2)c2cccc(O)c2)CC1 [MKP-1410, (4-(bis(3-hydroxyphenyl)methylene)piperidin-1-yl)(1H-pyrrolo[3,2-c]pyridin-7-yl)methanone] | – | 41 nM
Cc1cncc(C(=O)N2CCN(C(c3ccccc3)c3ccccn3)CC2)c1 (stereo not drawn) [MKP-1416, (5-methylpyridin-3-yl)(4-(phenyl(pyridin-2-yl)methyl)piperazin-1-yl)methanone] | – | 176 nM
Cc1cncc(C(=O)N2CCC(=C(c3ccccc3)C3CCCCC3)CC2)c1 [MKP-1421, (4-(cyclohexyl(phenyl)methylene)piperidin-1-yl)(5-methylpyridin-3-yl)methanone] | – | 920 nM
Cc1cncc(C(=O)N2CCC(=C(c3ccccn3)c3ccccn3)CC2)c1 [MKP-1422, (4-(di(pyridin-2-yl)methylene)piperidin-1-yl)(5-methylpyridin-3-yl)methanone] | – | 110 nM
COc1ccccc1C(=C1CCN(C(=O)c2cncc(C)c2)CC1)c1ccccn1 [MKP-1440, (4-((2-methoxyphenyl)(pyridin-2-yl)methylene)piperidin-1-yl)(5-methylpyridin-3-yl)methanone] | – | 170 nM
Cc1cncc(C(=O)N2CCN(C(c3ccccc3)c3ccncc3)CC2)c1 (stereo not drawn) [MKP-1442, (5-methylpyridin-3-yl)(4-(phenyl(pyridin-4-yl)methyl)piperazin-1-yl)methanone] | – | 1600 nM
O=C1CN(C(=O)N2CCN(C3c4ccccc4CS(=O)(=O)c4ccccc43)CC2)c2ccccc2N1 (stereo not drawn) [NZ-812, 4-[4-(5,5-dioxo-6,11-dihydrobenzo[c][1]benzothiepin-11-yl)piperazine-1-carbonyl]-1,3-dihydroquinoxalin-2-one] | – | 550 nM
CS(=O)(=O)c1ccccc1C(c1ccccc1)N1CCN(C(=O)c2cncc3cc[nH]c23)CC1 (stereo not drawn) [NZ-814, [4-[(2-methylsulfonylphenyl)-phenyl-methyl]piperazin-1-yl]-(1H-pyrrolo[3,2-c]pyridin-7-yl)methanone] | – | 53 nM
Cc1cncc(C(=O)N2CCN(C(c3cccc(F)c3)c3ccccc3S(C)(=O)=O)CC2)c1 (stereo not drawn) [NZ-817, [4-[(3-fluorophenyl)-(2-methylsulfonylphenyl)methyl]piperazin-1-yl]-(5-methyl-3-pyridyl)methanone] | – | 33 nM
Cc1cc(C(=O)N2CCN(C3c4ccccc4CS(=O)(=O)c4ccccc43)CC2)cnc1N (stereo not drawn) [NZ-819, (6-amino-5-methyl-3-pyridyl)-[4-(5,5-dioxo-6,11-dihydrobenzo[c][1]benzothiepin-11-yl)piperazin-1-yl]methanone] | – | 20000 nM
CC(=O)Nc1ncc(C(=O)N2CCN(C3c4ccccc4CS(=O)(=O)c4ccccc43)CC2)cc1C (stereo not drawn) [NZ-820, N-[5-[4-(5,5-dioxo-6,11-dihydrobenzo[c][1]benzothiepin-11-yl)piperazine-1-carbonyl]-3-methyl-2-pyridyl]acetamide] | – | > 80000 nM
O=C1Nc2ccc(F)cc2C1CC(=O)N1CCN(C(c2ccccc2)c2ccccc2)CC1 (stereo not drawn) [PKJ-663, 3-(2-(4-benzhydrylpiperazin-1-yl)-2-oxoethyl)-5-fluoroindolin-2-one] | – | > 80000 nM
Cc1cncc(C(=O)C2CCN(C(c3ccccc3)c3ccccc3)CC2=O)c1 (stereo not drawn) [PKJ-672, 1-benzhydryl-4-(5-methylnicotinoyl)piperidin-3-one] | – | 760 nM
CC(C)(C)OC(=O)NCc1cncc(C(=O)N2CCN(C(c3ccccc3)c3ccccc3)CC2)c1 [PKJ-703, tert-butyl ((5-(4-benzhydrylpiperazine-1-carbonyl)pyridin-3-yl)methyl)carbamate] | – | 930 nM
NCc1cncc(C(=O)N2CCN(C(c3ccccc3)c3ccccc3)CC2)c1 [PKJ-704, (5-(aminomethyl)pyridin-3-yl)(4-benzhydrylpiperazin-1-yl)methanone] | – | 1600 nM
